# Source: article PMC10573892, “β-Lactam TRPM8 Antagonists Derived from Phe-Phenylalaninol Conjugates: Structure–Activity Relationships and Antiallodynic Activity” (International Journal of Molecular Sciences, 2023)
# Key:
# [1] = target: T1, rTRPM8 (Rattus norvegicus, UniProt Q8R455); experiment: Patch-Clamp electrophysiology on single HEK293 cells expressing rat TRPM8; type: cell-based; details: activation by 100 µM menthol; holding voltage −60 mV
# T1 construct: expressed in transfected cells
# Source text: A recent research study using Patch-Clamp, among other techniques, established that menthol occupies a cavity within the TRPM8 S1–S4 transmembrane helix, with the OH group forming an H-bond with the δ-NH of R842 residue, and Van der Waals interactions among the methyl groups of the ^iPr moiety and residues I846 and L843 [41].
# This is evident by a negligible current at negative potentials and a linear intensification of the ohmic current at positive voltages. When applying compound 34 at a concentration of […], a noticeable reduction in menthol-induced activity at depolarizing voltages was observed (indicated by the red line) compared to menthol alone. Dose–response relationships for both tested compounds were established through triplicate experiments at various concentrations, applying a holding voltage of −60 mV (as shown in Figure 2B).
# (§1) Calcium fluorometry, Patch-Clamp assays and in vivo experiments were performed using the methodology previously described for TRPM8 [35] or TRPM3 [61]. In the Patch -Clamp experiments, the intracellular pipette solution contained (in mM) 140 KCl, 5 EGTA, and 10 mM HEPES, adjusted to pH 7.2 with KOH, and the extracellular solution contained (in mM) 140 NaCl, 2 CaCl2, 1 MgCl2, 10 D-glucose and 10 HEPES, adjusted to pH 7.4 with NaOH. Selectivity against TRPV1, TRPV3, TRPA1 and ASIC3 was subcontracted to Eurofins-CEREP or Eurofins-PANLABS (see ref. [35] for more details).
# Figure 2 Compound 34 blocks TRPM8-mediated responses evoked by menthol in rTRPM8-expressing HEK293 cells. (A) IV curves obtained after exposure to vehicle solution (green trace), 100 µM menthol (blue trace) and 100 µM menthol + 10 µM 34 (red trace). Peak current data were expressed as pA/pF (to allow comparison among different size cells). Each point is the mean ± SEM of n = 15. (B) Concentration/response curves for rTRPM8 current blockade by 34 at a holding voltage of −60 mV. […]
# [2] = target: T2, hTRPV1 (Homo sapiens, UniProt Q8NER1); experiment: TRPV1 channel Ca2+ microfluorimetry (capsaicin 30 nM); type: cell-based; details: 10 μM; agonist capsaicin 30 nM
# T2 construct: Eurofins-CEREP or Eurofins-PANLABS (contract assay)
# Source text: (§2) The effects of compound 34 have been evaluated on different ion channels and receptors implicated in pain-related processes to assess the selectivity for TRPM8 channels. First, some TRP channels that play a role in temperature integration and nociception were selected, including hTRPV1, hTRPV3, hTRPA1 and TRPM3. Additionally, the evaluation encompassed the hASIC3 channel with widespread distribution within the peripheral nervous system and contributions to the excitability of primary sensory neurons. In each instance, the compound was subjected to evaluation at a consistent concentration of 10 µM.
# as §1
# [3] = target: T3, hTRPV3 (Homo sapiens, UniProt Q8NET8); experiment: TRPV3 channel Ca2+ microfluorimetry (2-APB 30 μM); type: cell-based; details: agonist 2-APB 30 μM
# T3 construct: Eurofins-CEREP or Eurofins-PANLABS (contract assay)
# T3 sequence (Q8NET8 1-790): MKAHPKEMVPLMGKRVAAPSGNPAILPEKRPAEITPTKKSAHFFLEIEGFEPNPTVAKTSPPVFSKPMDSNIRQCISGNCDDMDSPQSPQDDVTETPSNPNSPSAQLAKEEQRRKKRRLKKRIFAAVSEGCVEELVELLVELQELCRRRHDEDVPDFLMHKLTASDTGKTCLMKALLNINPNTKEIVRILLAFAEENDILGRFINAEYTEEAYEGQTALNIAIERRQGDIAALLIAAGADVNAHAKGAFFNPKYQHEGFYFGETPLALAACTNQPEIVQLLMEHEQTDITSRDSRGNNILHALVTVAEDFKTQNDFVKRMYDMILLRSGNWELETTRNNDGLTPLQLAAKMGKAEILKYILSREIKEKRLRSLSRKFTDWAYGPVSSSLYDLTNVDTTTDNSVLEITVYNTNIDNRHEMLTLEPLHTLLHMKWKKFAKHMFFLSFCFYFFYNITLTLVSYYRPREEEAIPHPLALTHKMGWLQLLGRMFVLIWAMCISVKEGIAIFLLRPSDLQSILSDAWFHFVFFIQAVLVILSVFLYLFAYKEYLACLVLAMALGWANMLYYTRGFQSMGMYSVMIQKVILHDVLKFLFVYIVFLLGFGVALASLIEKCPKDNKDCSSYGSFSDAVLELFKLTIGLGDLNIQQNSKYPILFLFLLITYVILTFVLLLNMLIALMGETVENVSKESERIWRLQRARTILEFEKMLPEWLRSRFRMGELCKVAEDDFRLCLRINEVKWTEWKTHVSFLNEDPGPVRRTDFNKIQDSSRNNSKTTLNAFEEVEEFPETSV
# Source text: as §2, §1
# [4] = target: T4, hTRPA1 (Homo sapiens, UniProt O75762); experiment: TRPA1 channel Ca2+ microfluorimetry (allylisothiocyanate 10 μM); type: cell-based; details: agonist allylisothiocyanate 10 μM
# T4 construct: Eurofins-CEREP or Eurofins-PANLABS (contract assay)
# Source text: as §2, §1
# [5] = target: T5, hASIC3 channel (Homo sapiens, UniProt Q9UHC3); experiment: ASIC3 channel functional assay (buffer pH 5.5); type: cell-based
# T5 construct: Eurofins-CEREP or Eurofins-PANLABS (contract assay)
# T5 sequence (Q9UHC3 1-531): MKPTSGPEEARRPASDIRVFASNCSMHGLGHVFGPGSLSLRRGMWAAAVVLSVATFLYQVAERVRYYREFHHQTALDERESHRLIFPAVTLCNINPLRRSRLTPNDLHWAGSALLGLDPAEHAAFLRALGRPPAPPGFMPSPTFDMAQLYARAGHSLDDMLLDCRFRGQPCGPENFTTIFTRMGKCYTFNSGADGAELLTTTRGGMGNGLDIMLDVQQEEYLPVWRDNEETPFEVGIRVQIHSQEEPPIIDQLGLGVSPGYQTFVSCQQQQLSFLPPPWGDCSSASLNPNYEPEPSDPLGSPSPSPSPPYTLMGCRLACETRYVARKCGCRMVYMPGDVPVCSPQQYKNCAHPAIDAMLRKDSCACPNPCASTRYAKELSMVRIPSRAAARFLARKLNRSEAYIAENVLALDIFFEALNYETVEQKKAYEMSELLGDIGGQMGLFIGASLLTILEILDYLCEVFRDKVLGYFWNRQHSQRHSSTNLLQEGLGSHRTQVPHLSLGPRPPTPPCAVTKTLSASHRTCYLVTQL
# Source text: as §2, §1
# [6] = target: hCGRPR (Homo sapiens, UniProt O60894+Q16602); experiment: Radioligand binding at CGRP receptor; details: radioligand [125]hGCRPα
# Source text: (§3) Furthermore, the investigation extended to measuring the binding affinity of compound 34 to calcitonin gene-related peptide hCGRPR, cannabinoid hCB2 and muscarinic hM3 receptors, which are all relevant to different pain conditions.
# [7] = target: hCB2 (Homo sapiens, UniProt P34972); experiment: Radioligand binding at cannabinoid CB2 receptor; details: radioligand [3H]WIN 55212-2
# Source text: as §3
# [8] = target: hM3 (Homo sapiens, UniProt P20309); experiment: Radioligand binding at muscarinic M3 receptor; details: radioligand [3H]4-DMAP
# Source text: as §3
# [9] = target: T2, hTRPV1; design: method as in PMID 35269831; details: model compound; cited from earlier work
# T2 sequence (Q8NER1 whole entry): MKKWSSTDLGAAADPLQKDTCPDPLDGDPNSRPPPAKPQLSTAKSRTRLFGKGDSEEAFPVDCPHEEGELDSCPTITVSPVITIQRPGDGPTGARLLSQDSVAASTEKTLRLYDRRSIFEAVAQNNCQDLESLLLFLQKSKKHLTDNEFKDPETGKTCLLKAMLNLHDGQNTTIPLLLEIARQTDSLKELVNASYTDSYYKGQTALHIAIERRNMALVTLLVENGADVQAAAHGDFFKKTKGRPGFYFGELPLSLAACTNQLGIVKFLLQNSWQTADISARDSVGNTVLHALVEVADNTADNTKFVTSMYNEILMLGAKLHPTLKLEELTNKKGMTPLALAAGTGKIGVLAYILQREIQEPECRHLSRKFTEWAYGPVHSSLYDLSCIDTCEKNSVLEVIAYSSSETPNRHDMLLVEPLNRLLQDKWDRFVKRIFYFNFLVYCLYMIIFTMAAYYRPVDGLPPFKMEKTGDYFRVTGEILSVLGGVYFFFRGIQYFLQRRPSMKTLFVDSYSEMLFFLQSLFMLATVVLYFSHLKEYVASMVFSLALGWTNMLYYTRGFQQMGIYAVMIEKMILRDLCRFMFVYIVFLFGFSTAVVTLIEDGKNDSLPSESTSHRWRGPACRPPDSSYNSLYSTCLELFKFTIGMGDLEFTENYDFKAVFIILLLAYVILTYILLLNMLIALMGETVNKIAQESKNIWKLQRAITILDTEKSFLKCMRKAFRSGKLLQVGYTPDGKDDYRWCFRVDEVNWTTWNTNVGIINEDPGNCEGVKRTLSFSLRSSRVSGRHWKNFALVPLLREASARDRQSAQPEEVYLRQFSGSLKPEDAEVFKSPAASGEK
# Chain of hM3 (P20309 whole entry): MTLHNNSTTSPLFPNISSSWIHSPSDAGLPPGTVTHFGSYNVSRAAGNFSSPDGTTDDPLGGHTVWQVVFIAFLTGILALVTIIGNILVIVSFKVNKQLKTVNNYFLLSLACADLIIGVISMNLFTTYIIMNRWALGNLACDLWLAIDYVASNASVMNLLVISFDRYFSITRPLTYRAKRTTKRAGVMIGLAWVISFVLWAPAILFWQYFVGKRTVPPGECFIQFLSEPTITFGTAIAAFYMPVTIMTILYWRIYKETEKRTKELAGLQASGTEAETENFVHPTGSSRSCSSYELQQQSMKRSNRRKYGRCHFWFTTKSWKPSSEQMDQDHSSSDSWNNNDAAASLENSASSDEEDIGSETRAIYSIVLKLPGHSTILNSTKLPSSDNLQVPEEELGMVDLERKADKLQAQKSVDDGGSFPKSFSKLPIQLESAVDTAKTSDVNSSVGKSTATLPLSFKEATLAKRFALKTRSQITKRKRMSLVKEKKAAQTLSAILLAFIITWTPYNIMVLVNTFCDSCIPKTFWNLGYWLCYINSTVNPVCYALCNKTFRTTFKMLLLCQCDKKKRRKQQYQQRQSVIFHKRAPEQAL
# T1 sequence (Q8R455 whole entry): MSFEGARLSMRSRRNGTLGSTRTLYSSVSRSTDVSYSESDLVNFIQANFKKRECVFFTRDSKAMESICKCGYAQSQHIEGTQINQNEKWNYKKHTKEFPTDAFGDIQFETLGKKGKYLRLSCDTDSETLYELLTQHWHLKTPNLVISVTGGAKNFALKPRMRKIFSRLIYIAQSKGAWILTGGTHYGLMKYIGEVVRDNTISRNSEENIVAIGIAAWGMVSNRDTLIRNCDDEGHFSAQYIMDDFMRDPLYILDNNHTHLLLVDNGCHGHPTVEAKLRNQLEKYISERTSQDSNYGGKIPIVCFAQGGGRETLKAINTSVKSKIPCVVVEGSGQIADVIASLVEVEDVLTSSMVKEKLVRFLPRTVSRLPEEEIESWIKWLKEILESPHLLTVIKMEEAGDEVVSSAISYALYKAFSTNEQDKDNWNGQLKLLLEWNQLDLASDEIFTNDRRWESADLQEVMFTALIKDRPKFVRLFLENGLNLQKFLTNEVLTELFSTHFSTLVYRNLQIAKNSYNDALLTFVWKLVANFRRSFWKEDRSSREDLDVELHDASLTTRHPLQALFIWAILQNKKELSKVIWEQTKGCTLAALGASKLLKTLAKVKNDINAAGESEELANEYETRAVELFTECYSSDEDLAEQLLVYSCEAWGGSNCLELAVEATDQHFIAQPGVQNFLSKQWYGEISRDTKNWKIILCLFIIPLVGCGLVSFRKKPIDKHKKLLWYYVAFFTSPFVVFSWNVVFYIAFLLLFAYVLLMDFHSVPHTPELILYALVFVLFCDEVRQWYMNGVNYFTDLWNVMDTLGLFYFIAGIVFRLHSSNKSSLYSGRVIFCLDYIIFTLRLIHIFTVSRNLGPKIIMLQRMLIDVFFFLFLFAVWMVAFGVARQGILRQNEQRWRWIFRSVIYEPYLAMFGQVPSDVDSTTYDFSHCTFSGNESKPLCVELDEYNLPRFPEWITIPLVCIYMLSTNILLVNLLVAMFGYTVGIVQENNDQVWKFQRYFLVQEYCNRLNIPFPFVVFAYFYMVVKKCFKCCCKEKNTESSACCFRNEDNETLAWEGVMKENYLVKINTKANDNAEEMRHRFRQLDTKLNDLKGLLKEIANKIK
# Chain of hCGRPR (Q16602 23-461): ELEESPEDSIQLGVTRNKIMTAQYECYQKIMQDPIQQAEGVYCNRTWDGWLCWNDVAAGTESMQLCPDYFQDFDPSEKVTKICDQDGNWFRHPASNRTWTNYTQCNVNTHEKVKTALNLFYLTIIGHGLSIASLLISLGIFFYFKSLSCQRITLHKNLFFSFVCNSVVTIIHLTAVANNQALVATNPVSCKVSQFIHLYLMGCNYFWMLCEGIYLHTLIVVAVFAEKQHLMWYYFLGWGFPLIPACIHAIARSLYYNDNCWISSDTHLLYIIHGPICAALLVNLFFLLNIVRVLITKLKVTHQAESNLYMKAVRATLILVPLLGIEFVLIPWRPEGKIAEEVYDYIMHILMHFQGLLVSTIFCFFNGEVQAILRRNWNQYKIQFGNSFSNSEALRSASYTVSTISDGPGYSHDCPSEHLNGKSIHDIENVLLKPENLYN
# Chain of hCGRPR (O60894 27-148): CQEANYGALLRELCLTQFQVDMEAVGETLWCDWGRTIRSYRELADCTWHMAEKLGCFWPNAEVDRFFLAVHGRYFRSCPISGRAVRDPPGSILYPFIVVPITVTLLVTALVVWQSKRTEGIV
# T4 sequence (O75762 whole entry): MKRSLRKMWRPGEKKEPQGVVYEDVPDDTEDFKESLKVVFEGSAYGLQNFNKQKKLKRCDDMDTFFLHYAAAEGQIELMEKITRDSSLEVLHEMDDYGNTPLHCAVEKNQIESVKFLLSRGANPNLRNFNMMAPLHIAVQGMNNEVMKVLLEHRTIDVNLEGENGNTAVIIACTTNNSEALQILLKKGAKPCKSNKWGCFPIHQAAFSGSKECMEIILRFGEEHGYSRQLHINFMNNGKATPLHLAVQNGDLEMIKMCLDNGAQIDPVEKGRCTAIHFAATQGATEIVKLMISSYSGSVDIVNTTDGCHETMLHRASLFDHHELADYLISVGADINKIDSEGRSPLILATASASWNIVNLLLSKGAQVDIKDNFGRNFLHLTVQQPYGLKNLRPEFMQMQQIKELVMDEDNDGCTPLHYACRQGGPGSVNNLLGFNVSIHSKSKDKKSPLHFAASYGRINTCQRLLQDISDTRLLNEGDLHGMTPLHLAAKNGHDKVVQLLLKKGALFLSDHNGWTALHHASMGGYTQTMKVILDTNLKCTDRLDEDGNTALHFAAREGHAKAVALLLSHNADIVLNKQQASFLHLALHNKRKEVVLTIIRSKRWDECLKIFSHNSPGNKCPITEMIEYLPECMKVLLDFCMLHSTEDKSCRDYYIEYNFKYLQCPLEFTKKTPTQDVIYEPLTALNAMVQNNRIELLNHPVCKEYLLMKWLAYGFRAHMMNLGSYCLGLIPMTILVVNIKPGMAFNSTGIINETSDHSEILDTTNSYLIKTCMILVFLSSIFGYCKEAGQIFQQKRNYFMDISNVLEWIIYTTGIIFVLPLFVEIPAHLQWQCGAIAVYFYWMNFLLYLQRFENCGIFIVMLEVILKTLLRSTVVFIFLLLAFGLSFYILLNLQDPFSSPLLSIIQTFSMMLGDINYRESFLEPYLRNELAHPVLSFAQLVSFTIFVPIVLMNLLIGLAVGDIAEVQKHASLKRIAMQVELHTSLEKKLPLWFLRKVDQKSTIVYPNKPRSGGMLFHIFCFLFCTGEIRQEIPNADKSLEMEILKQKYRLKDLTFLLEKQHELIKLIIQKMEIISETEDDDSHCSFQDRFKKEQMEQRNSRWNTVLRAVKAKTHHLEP
# Chain of hCB2 (P34972 whole entry): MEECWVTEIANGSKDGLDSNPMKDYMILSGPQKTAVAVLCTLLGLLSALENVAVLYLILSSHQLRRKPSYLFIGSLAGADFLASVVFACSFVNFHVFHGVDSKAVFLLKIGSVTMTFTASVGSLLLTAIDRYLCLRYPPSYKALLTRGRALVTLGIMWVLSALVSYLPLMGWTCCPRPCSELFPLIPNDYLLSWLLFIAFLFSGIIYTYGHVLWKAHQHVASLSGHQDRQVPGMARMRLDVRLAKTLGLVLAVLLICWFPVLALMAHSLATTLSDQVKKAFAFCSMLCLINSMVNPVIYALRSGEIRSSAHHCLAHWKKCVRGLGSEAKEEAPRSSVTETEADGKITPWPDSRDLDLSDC
smiles,measurement,setting,value
C[C@@H]1C(=O)N(C[C@H](Cc2ccccc2)N(Cc2ccccc2)Cc2ccccc2)[C@]1(Cc1ccccc1)C(=O)OC(C)(C)C [Compound 1],IC50,[1],600 ± 1660 nM
same,inhibition at 10 µM,[2],19.4 ± 1.7%
same,inhibition at 10 µM,[3],-6.3 ± 5.9%
same,inhibition at 10 µM,[4],4.2 ± 1.1%
same,inhibition at 10 µM,[5],6 ± 0.9%
same,inhibition at 10 µM,[6],-1 ± 4.3%
same,inhibition at 10 µM,[7],7.3 ± 0.3%
same,inhibition at 10 µM,[8],-4.1 ± 3.1%
same,activation on the TRPV1 channel,[9],about 30%
